The values below come from PMC10560226, “Triepoxide formation by a flavin-dependent monooxygenase in monensin biosynthesis” (Nature Communications, 2023).

For test [1], the target named is T1, MonCI (Streptomyces virginiae, UniProt Q846W9).
T1 construct: gene monC1; N-terminal 6xHis-tag, pCold vector, E. coli BL21-AI; model covers residues 4-480 (chain A), last residue 496
T1 sequence (Q846W9 1-496): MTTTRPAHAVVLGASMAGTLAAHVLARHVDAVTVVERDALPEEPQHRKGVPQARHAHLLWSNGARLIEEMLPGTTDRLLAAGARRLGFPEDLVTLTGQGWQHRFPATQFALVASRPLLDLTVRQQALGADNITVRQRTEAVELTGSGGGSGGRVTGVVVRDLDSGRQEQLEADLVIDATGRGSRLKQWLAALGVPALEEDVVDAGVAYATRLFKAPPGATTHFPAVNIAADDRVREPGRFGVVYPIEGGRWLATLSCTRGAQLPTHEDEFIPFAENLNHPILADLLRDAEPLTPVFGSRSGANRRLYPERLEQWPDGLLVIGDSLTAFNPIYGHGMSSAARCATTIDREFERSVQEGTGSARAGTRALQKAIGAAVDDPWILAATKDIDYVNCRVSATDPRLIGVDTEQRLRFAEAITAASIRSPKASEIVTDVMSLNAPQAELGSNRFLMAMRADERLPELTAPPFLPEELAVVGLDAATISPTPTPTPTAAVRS
Put plainly: X-ray crystal structure, […] Å. It is filed as binding. The note with it: noncovalently bound, co-purified; isoalloxazine ring in "in" conformation; pH 6.5-6.8 crystals.

The target in test [2] is T1, MonCI. Description: LC-MS of epoxide products. It is filed as biochemical. The note with it: 160 µM FHB, 15 µM MonCI, 80 µM FAD, Fre, NADH or NADH regeneration (glucose dehydrogenase), 50 mM Tris pH 8.0, 300 mM NaCl, 30 °C, 6 h.
Test [3] deals with T1, MonCI. Description: HPLC of epoxide product. It is filed as biochemical. To be noted: electron donor, 4 mM; FHB 160 µM, Tris pH 8.0, 30 °C, 6 h.
Test [4] addresses MonCI (Streptomyces cinnamonensis). Description: ITC; MicroCal ITC200, 25 °C, 100 mM phosphate pH 8.0; MonCI in the cell (60 μM with wild-type MonACPX 1.2 mM in the syringe; 100 μM with control ACP 1.0 mM in the syringe); 20 injections; one site model; performed twice.

In the case of `Cc1cc2nc3c(=O)[nH]c(=O)nc-3n(C[C@H](O)[C@H](O)[C@H](O)COP(=O)(O)OP(=O)(O)OC[C@H]3O[C@@H](n4cnc5c(N)ncnc54)[C@H](O)[C@@H]3O)c2cc1C` [FAD], the “X-ray crystal structure, 1.9 Å” value at MonCI [1] is “One FAD coenzyme and one chloride ion were found in each chain”.

Regarding `CC(C)=CCCC(C)=CCCC(C)=CCOC(=O)c1ccc(O)cc1` [FHB, farnesyl 4-hydroxybenzoate], the “LC-MS of epoxide products” value at MonCI [2] is recorded as “MonCI can perform multiple epoxidations on the same substrate molecule”.

Take `NC(=O)C1=CN([C@@H]2O[C@H](COP(=O)(O)OP(=O)(O)OC[C@H]3O[C@@H](n4cnc5c(N)ncnc54)[C@H](O)[C@@H]3O)[C@@H](O)[C@H]2O)C=CC1` [NADH]: the “HPLC of epoxide product” value on MonCI [3] is “MonCI has similar preference for NADH and NADPH”.

For orientation: Kd means a measure of binding affinity in units of concentration. The low end stands for higher affinity, the high end for lower affinity. Take apo-DEBS ACP2 (domain or fragment): the Kd in test [4] was found to be 49.8 µM. In other words, the double-digit micromolar range.

The compound wild-type apo-MonACPX (natural protein) had a Kd in test [4] of 10.7 µM.
